Some test systems named below: CCRF-CEM; EKVX; HCC 2998; HL-60; HOP-92; IGROV-1; K562; LOX IMVI; M14; NCI-H226; NCI-H23; NCI-H460; OVCAR-3; RXF 393; SF-295; SN12C; SNB-19; SNB-75; UACC-257; UO-31.
Holding throughout (assay): growth of human tumour cells (NCI), 48 h

Molecules are shown by their SMILES.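 Five concentrations, 48 hours, 96-well plates. GI50 is the concentration that inhibits growth by half.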 The source made the active and inactive calls. No stated cut-off is given here; in the data, active = GI50 up to about 1.1 µM and inactive = higher.

For `CCSc1nc(=S)n(-c2ccccc2)c(C)c1C(C)=O`, the GI50 with CCRF-CEM, in the assay with EKVX, in the assay with HCC 2998, with HL-60, in the assay on HOP-92 and with IGROV-1 was > 100 µM (inactive) throughout. For the same compound, the GI50 with K562, in the assay on LOX IMVI, with M14, in the assay with NCI-H226, in the assay on NCI-H23 and in the assay on NCI-H460 was > 100 µM (inactive) in each case. Also, the GI50 is > 100 µM (inactive) with OVCAR-3; > 100 µM (inactive) in the assay on RXF 393; > 100 µM (inactive) in the assay on SF-295; > 100 µM (inactive) with SN12C; > 94.6 µM (inactive) with SNB-19; > 100 µM (inactive) with SNB-75. Also, the GI50 with UACC-257 and with UO-31 was > 100 µM (inactive) throughout.
As for `N/N=C(\C(=O)Nc1ccc([N+](=O)[O-])cc1)C(C1=Nc2cc([N+](=O)[O-])ccc2NC1)[N+](=O)[O-]` (stereo not given), the GI50 with CCRF-CEM was 65.2 µM (inactive); with EKVX, > 100 µM (inactive); with HCC 2998 it was > 100 µM (inactive); in the assay on HL-60, > 100 µM (inactive); in the assay with HOP-92, > 100 µM (inactive); in the assay with IGROV-1, > 100 µM (inactive). The GI50 in the assay with K562 is > 100 µM (inactive); with LOX IMVI, 74.8 µM (inactive); with M14 it was > 100 µM (inactive); with NCI-H226, > 100 µM (inactive); with NCI-H23, > 100 µM (inactive); in the assay with NCI-H460 it was 42.2 µM (inactive). Besides, the GI50 with OVCAR-3, with RXF 393, in the assay on SF-295, in the assay on SN12C, in the assay with SNB-19 and in the assay with SNB-75 was > 100 µM (inactive) throughout. Further, the GI50 in the assay with UACC-257 was > 100 µM (inactive); with UO-31 it was 22.1 µM (inactive).
On to `O=C(O)CN1CCN2CCOCCN(CC1)CCN(CC(=O)O)CC2`, for which the GI50 is > 100 µM (inactive) in the assay on CCRF-CEM; > 100 µM (inactive) in the assay with EKVX; > 100 µM (inactive) in the assay on HCC 2998; > 53.3 µM (inactive) in the assay with HL-60; > 100 µM (inactive) in the assay with HOP-92; > 100 µM (inactive) in the assay with IGROV-1. Further, the GI50 in the assay on K562, with LOX IMVI, in the assay with M14, in the assay on NCI-H226, in the assay with NCI-H23 and in the assay on NCI-H460 was > 100 µM (inactive) throughout. The GI50 in the assay on OVCAR-3, in the assay with RXF 393, with SF-295, in the assay with SN12C, in the assay with SNB-19 and in the assay on SNB-75 was > 100 µM (inactive) each time. For the same compound, the GI50 in the assay on UACC-257 and in the assay with UO-31 was > 100 µM (inactive) each time.
Regarding `O=C1NC(=O)C2C(=O)NC(=O)C1C2c1c(Cl)cccc1Cl` (stereo not given), the GI50 in the assay on CCRF-CEM was > 46.7 µM (inactive); with EKVX it was > 100 µM (inactive); with HCC 2998, > 60.5 µM (inactive); with HL-60 it was > 44.4 µM (inactive); with HOP-92 it was > 100 µM (inactive); in the assay with IGROV-1, > 100 µM (inactive). In addition, the GI50 in the assay with K562 was > 49.4 µM (inactive); in the assay on LOX IMVI it was > 43 µM (inactive); in the assay with M14, > 100 µM (inactive); in the assay on NCI-H226 it was > 100 µM (inactive); in the assay on NCI-H23 it was > 100 µM (inactive); with NCI-H460 it was > 42.2 µM (inactive). Also, the GI50 was > 100 µM (inactive) with OVCAR-3; > 43.1 µM (inactive) in the assay with RXF 393; > 100 µM (inactive) in the assay on SF-295; > 83.6 µM (inactive) in the assay with SN12C; > 100 µM (inactive) in the assay on SNB-19; > 63.5 µM (inactive) in the assay with SNB-75. Moreover, the GI50 is > 67.9 µM (inactive) in the assay on UACC-257 and > 100 µM (inactive) in the assay with UO-31.
For the compound `CCC(=O)C(C)C1=Nc2nnc(CCCCCCCc3nnc4n3C(=O)C(C(C)C(=O)CC)=N4)n2C1=O` (stereo not given), the GI50 in the assay with CCRF-CEM, in the assay with EKVX, in the assay with HCC 2998, in the assay with HL-60, in the assay on HOP-92 and in the assay with IGROV-1 was > 100 µM (inactive) in each case. Also, the GI50 in the assay on K562, in the assay with LOX IMVI, in the assay with M14, with NCI-H226, with NCI-H23 and with NCI-H460 was > 100 µM (inactive) throughout. The GI50 in the assay with OVCAR-3, in the assay on RXF 393, in the assay with SF-295, in the assay with SN12C, in the assay on SNB-19 and with SNB-75 was > 100 µM (inactive) throughout. Also, the GI50 in the assay with UACC-257 and with UO-31 was > 100 µM (inactive) in each case.
With `CC1(C)CC[C@]2(C(=O)O)CC[C@]3(C)C(=CC[C@@H]4[C@@]5(C)CC[C@H](OC6OC(C(=O)O)C(O)C(O)C6O)C(C)(C)[C@@H]5CC[C@]43C)[C@@H]2C1` (stereo not given in full), the GI50 was 21 µM (inactive) with CCRF-CEM; 24.5 µM (inactive) in the assay with EKVX; 18.8 µM (inactive) with HCC 2998; 18.2 µM (inactive) with HL-60; 13.1 µM (inactive) in the assay with HOP-92; 20 µM (inactive) in the assay with IGROV-1. Also, the GI50 in the assay with K562 is 17 µM (inactive); in the assay with LOX IMVI, 19 µM (inactive); in the assay with M14, 16.9 µM (inactive); in the assay on NCI-H226, 18.5 µM (inactive); in the assay on NCI-H23, 18.9 µM (inactive); in the assay with NCI-H460 it was 18.7 µM (inactive). In addition, the GI50 was 14.2 µM (inactive) with OVCAR-3; 16.7 µM (inactive) in the assay with RXF 393; 15.2 µM (inactive) in the assay with SF-295; 16.8 µM (inactive) with SN12C; 22 µM (inactive) in the assay on SNB-19; 18.1 µM (inactive) in the assay with SNB-75. Further, the GI50 with UACC-257 is 16.4 µM (inactive); with UO-31, 19.5 µM (inactive).
As for `Cn1c(-c2ccccc2)cc(-c2ccc3c(c2)OCO3)c1-c1cccs1`, the GI50 with CCRF-CEM, in the assay on EKVX, in the assay on HCC 2998, with HL-60, in the assay with HOP-92 and in the assay on IGROV-1 was > 100 µM (inactive) each time. Also, the GI50 in the assay with K562 is > 100 µM (inactive); in the assay on LOX IMVI, > 100 µM (inactive); with M14, > 100 µM (inactive); with NCI-H226, > 100 µM (inactive); with NCI-H23 it was 64.7 µM (inactive); in the assay on NCI-H460 it was > 100 µM (inactive). Further, the GI50 with OVCAR-3, in the assay on RXF 393, in the assay with SF-295, in the assay with SN12C, in the assay on SNB-19 and in the assay on SNB-75 was > 100 µM (inactive) throughout. The GI50 with UACC-257 and with UO-31 was > 100 µM (inactive) throughout.
For `COc1nc2c(c(=O)[nH]1)N=C(c1ccccc1)CC(c1ccccc1)N2` (stereo not given), the GI50 in the assay on CCRF-CEM was 36.4 µM (inactive); in the assay with EKVX, 48.9 µM (inactive); with HCC 2998, 54.5 µM (inactive); with HL-60, > 10 µM (inactive); with HOP-92, 80.9 µM (inactive); in the assay on IGROV-1, 61.4 µM (inactive). In addition, the GI50 is 25.3 µM (inactive) in the assay with K562; 44.8 µM (inactive) in the assay on LOX IMVI; 34.3 µM (inactive) in the assay on M14; 72.6 µM (inactive) in the assay on NCI-H226; 74.3 µM (inactive) in the assay with NCI-H23; 35.6 µM (inactive) with NCI-H460. Moreover, the GI50 was > 100 µM (inactive) in the assay on OVCAR-3; 31 µM (inactive) in the assay with RXF 393; 49.1 µM (inactive) in the assay on SF-295; 37 µM (inactive) in the assay with SN12C; > 100 µM (inactive) in the assay on SNB-19; 15.3 µM (inactive) in the assay with SNB-75. In addition, the figures for the GI50 in the assay with UACC-257 and in the assay with UO-31 were > 100 µM (inactive) and 39.6 µM (inactive), respectively.
Consider `O=c1oc2ccccc2c(Nc2ccc3c(c2)Sc2ccccc2O3)c1[N+](=O)[O-]`, for which the GI50 with CCRF-CEM was 31.7 µM (inactive); in the assay on EKVX, 22.9 µM (inactive); in the assay on HCC 2998, 20.4 µM (inactive); in the assay with HL-60, 29.7 µM (inactive); with HOP-92 it was 20.7 µM (inactive); with IGROV-1 it was 26.2 µM (inactive). For the same compound, the GI50 in the assay with K562 was 20 µM (inactive); with LOX IMVI it was 33.3 µM (inactive); with M14 it was 27.4 µM (inactive); in the assay with NCI-H226, 23.2 µM (inactive); with NCI-H23 it was 25.9 µM (inactive); in the assay on NCI-H460 it was 17.3 µM (inactive). The GI50 was 17.1 µM (inactive) in the assay with OVCAR-3; 23.4 µM (inactive) in the assay with RXF 393; 22.1 µM (inactive) in the assay with SF-295; 28.9 µM (inactive) with SN12C; 27 µM (inactive) in the assay with SNB-19; 23.2 µM (inactive) in the assay with SNB-75. The results for the GI50 in the assay with UACC-257 and with UO-31 were 18.5 µM (inactive) and 25.6 µM (inactive), respectively.
In the case of `CCOC(=O)C1=NOC2(C=C(Br)C(=O)C(Br)=C2)C1`, the GI50 with CCRF-CEM was < 0.0132 µM (active); with EKVX, 2.22 µM (inactive); in the assay on HCC 2998, 1.79 µM (inactive); in the assay on HL-60 it was 0.28 µM (active); in the assay with HOP-92 it was 1.82 µM (inactive); in the assay with IGROV-1, 7.36 µM (inactive). For the same compound, the GI50 in the assay with K562 is 1.37 µM (inactive); with LOX IMVI, 2.47 µM (inactive); with M14, 1.67 µM (inactive); in the assay on NCI-H226, 25.8 µM (inactive); in the assay with NCI-H23, 3.05 µM (inactive); with NCI-H460 it was 6.55 µM (inactive). Also, the GI50 in the assay with OVCAR-3 is 1.39 µM (inactive); in the assay with RXF 393, 1.59 µM (inactive); in the assay on SF-295 it was 15.5 µM (inactive); in the assay on SN12C, 2.36 µM (inactive); in the assay on SNB-19, 19 µM (inactive); in the assay on SNB-75 it was 16.9 µM (inactive). In addition, the GI50 in the assay on UACC-257 is 1.34 µM (inactive); in the assay with UO-31 it was 1.09 µM (active).

Values taken from ChEMBL document CHEMBL1201862, “PubChem BioAssay data set” (2004).
